Measured values: patent US20030114498A1, “Remedies for malignant tumor-concomitant neurosis and azoor or analogous diseases thereof” (priority 2002, published 2003)
“Also recorded” adds a separate entry of the source.

Legend:
AZOOR [1] = conditions: reported case, administration for two weeks; cited from earlier work
AZOOR [2] = experiment: Clinical case: therapeutic effect on AZOOR, static visual field examination (Humphrey visual field analyzer); type: in vivo, human patient; conditions: person
Excerpt: Example of Clinical Trial (Therapeutic Effect on AZOOR)
The patient became aware of dark and blurred vision in the center of their visual field on Sep. 1, 1999, and visited Ohyachi Kyoritsu Eye Clinic on September 4 in the same year. […] ERG was subnormal and normal for the right and left eyes, respectively. […] FAG detected mild leakage of fluorescein from the optic disc of the right eye. In view of these observations, optic nerve disorder was suspected and the patient was made to visit a brain surgeon in the neighborhood to receive CT and MRT examinations. However, no abnormality was found. […] To treat the eye symptom, the clinic prescribed oral medications such as drug for ameliorating circulation for a while, but no improvement of visual field was observed. Thus, on Oct. 1, 1999, the patient was referred to the Department of ophthalmology at Sapporo Medical University, School of Medicine for close examination.
Visual acuity was Vd=1.2 and Vs=1.2. Although pupils were round and equal in size, the right eye was RAPD(+) but no oculomotor abnormalities were observed. […] In the static visual field examination, reduction of the sensitivity in the central visual field was observed.
Oral administration of prednisolone (40 mg/day) was started on Oct. 1, 1999. The patient became aware of dark and blurred vision also in the center of the visual field of their left eye on Oct. 20, 1999. […]

[3] = launched ten years ago; cited from earlier work
apoptosis caused by CAR = experiment: Therapeutic effect on cancer-associated neuropathy: ERG in rats given anti-recoverin and anti-hsp70 antibodies into the vitreous body; type: in vivo, Lewis rats; conditions: nilvadipine 3.2 mg/kg/day peritoneal for two weeks with antibody infusion into vitreous body; follow-up five weeks; 24 h light; FIG. 1
Description: Example of Experiment (Therapeutic Effect on Cancer-Associated Neuropathy)
Test animal: Lewis rats (8 weeks of age) Treatment group 5 animals (10 eyes) Control group 5 animals (10 eyes)
Photoenvironment: Apoptosis (cell death) was induced under light for 24 hours.
Test drugs: Nilvadipine (3.2 mg/kg/day) by peritoneal administration (dissolving solution) polyethylene glycol 400: ethanol:water=1:1:2 Predonine (0.6 μg/kg/day) by intramuscular injection (dissolving solution) PBS (phosphate buffer solution) Cyclosporine A (10 mg/kg/day) by intramuscular injection (dissolving solution) olive oil
Antibodies: anti-recoverin antibody (5 μl/eye) anti-hsp70 antibody (5 μl/eye)
Test drugs were administered for two weeks along with infusion of antibodies into vitreous body of the eye.
Follow-up observation was performed for five weeks after the start of administration. PBS alone was administered to the control group.
In FIG. 1, the vertical axis represents ERG (electroretinogram) amplitude, and the horizontal axis is the lapse of time in weeks. Δ: nilvadipine group; □: predonine group; ⋄: cyclosporin A group; and ◯: control group.

Nc1nc2c(ncn2COCCO)c(=O)[nH]1 [aciclovir]
progress of visual field defect in the other eye (AZOOR [1]): stopped

COC(=O)C1=C(C#N)NC(C)=C(C(=O)OC(C)C)C1c1cccc([N+](=O)[O-])c1 (centres unmarked) [nilvadipine, isopropyl 6-cyano-5-methoxycarbonyl-2-methyl-4-(3-nitrophenyl)-1,4-di hydropyridine-3-carboxylate ester]
static visual field / visual sensitivity after nilvadipine (AZOOR [2]; two months after start of oral nilvadipine (Depo-Medrol sub-Tenon's injection three days earlier), FIGS. 4 and 5): remarkable improvement of visual sensitivity
side effects [3]: no noteworthy serious side effects
ERG (electroretinogram) amplitude, effectiveness compared with the other test drugs (apoptosis caused by CAR): more effective than predonine and cyclosporin A

C[C@]12C=CC(=O)C=C1CC[C@@H]1[C@@H]2[C@@H](O)C[C@@]2(C)[C@H]1CC[C@]2(O)C(=O)CO [prednisolone]
visual field defect under oral prednisolone (AZOOR [2]; oral prednisolone 40 mg/day reduced to 10 mg/day, FIGS. 2 and 3): no amelioration of the visual field defect; also recorded: could not improve the visual field
